Results on 31 substances are retold here after US20250281523A1, “SULFATED GLYCOSAMINOGLYCAN COMPOUNDS, METHODS, AND USES THEREOF” (California Institute of Technology, priority 2024, published 2025).

One assay deals with T1, FGF4 (Homo sapiens, UniProt P08620).
T1 construct: purchased Peprotech
T1 sequence (P08620 31-206): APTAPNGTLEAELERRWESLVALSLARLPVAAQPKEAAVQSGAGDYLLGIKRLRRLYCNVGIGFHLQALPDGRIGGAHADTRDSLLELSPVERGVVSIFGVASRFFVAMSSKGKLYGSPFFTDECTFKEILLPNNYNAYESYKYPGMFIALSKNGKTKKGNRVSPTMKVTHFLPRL
Nature of the assay: HS tetrasaccharide microarray binding assay, FGF4. As to conditions: glycan microarray, compound 50 μM, normalized to the compound with greatest binding. The procedure:
(§1) Heparan sulfate tetrasaccharide microarray fabrication. HS oligosaccharides were dissolved in sodium phosphate buffer (pH 8.5, 50 mM) in 9 concentrations: 200 μM, 100 μM, 50 μM, 25 μM, 12.5 μM, 6.25 μM, 3.13 μM, 1.57 μM, 0.79 μM. The robotic arrayer SX (from Scienion, Berlin, Germany) delivered 414 pL of the solution containing oligosaccharides (9 spots per concentration) to the array slides using dispensing nozzle PDC80, P-2040, under ˜50% relative humidity at 20° C. […] The slides were incubated in a chamber with saturated (NH4)2SO4 solution (81% relative humidity) for 24 h at 20° C., and unreacted HS oligosaccharides were removed from the slides by rinsing with deionized water. The remaining N-hydroxysuccinimide (NHS) ester groups were blocked by placing slides in a solution containing 50 mM ethanolamine in PBST (137 mM NaCl, 13 mM Na2HPO4, 1.6 mM NaH2PO4, 2.7 mM KCl, 0.010% Tween-20) at 50° C. for 1.5 h. Slides were rinsed several times with deionized water, dried by centrifugation, and stored before use.
(§2) HS tetrasaccharide microarray binding assay and array slide processing. The slide was blocked with 10% BSA in TBST (4.0 mL) with gentle rocking at RT for 1 h, followed by submerging in TBST. This condition was empirically determined to reduce nonspecific binding of proteins to the microarray and to provide optimal signal-to-noise ratios. Next, 5.0 μL of the primary detection protein ([…], 0.50 μg/mL) solution was transferred to 2.5 mL of TBST w/1% BSA in a chamber and the slide was incubated with gentle shaking for 1 h at RT. The slide was then washed two times for 5 min each in TBST (4.0 mL) while gently rocking. After the washes, the slide was incubated with the appropriate biotinylated antibody ([…], 0.50 μg/mL) in 1% BSA in TBST solution (3.0 mL) with gentle rocking for 1 h. The slide was then washed two times for 5 min in TBST (5.0 mL) while gently rocking. Next, the slide was incubated with 4.0 mL of Alexa Fluor 647-conjugated streptavidin detection solution (1.0 μg/mL in TBST w/1% BSA) in the dark with gentle rocking for 1 h, washed with TBST (5.0 mL, two times) followed by PBS (45 mL, two times) and ddH2O (45 mL, two times), and then dried under a gentle stream of 0.2 micron-filtered air. For his-tagged FGF2, detection was accomplished with an AF647-labeled anti-his antibody. All incubations and washes were carried out at RT unless otherwise noted. The microarray was scanned and analyzed at 647 nm using an Agilent G2565CA Microarray Scanner, and fluorescence quantification was performed using ImageJ software with correction for local background. To ensure accurate signal quantification, the average signal intensity was calculated over a fixed area for all spots. Results were plotted with Prism 9 software at a single concentration as background corrected fluorescence values normalized to the compound with the highest signal. Bar graphs represent the mean±SD for each compound (50 μM) in nonuplicate. Each experiment was performed 2-3 times. Heat maps were generated in Excel with columns sorted by sulfation status of the amino positions and rows sorted by sulfation status of the 2-O- and 6-O-hydroxyl groups.

The target in another assay is T2, CXCL8 (interleukin-8) (Homo sapiens, UniProt P10145).
T2 construct: recombinant human IL-8 (CXCL8) (77 a.a.) (>95% purity); purchased Peprotech
T2 sequence (P10145 23-99 limits assumed): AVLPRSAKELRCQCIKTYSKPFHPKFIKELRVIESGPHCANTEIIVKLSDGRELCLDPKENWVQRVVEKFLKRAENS
Nature of the assay: HS tetrasaccharide microarray binding assay, CXCL8. As to conditions: glycan microarray, compound 50 μM, normalized to the compound with greatest binding. On the procedure:
as §1, §2

The next assay deals with T3, FGF2 (Homo sapiens, UniProt P09038).
T3 construct: purchased Sino Biological
The experiment in a line: HS tetrasaccharide microarray binding assay, FGF2. As to conditions: glycan microarray; for relative binding of FGF2: compound 50 μM, normalized to the compound with greatest binding. The procedure:
as §1, §2

T3 sequence (P09038 143-288): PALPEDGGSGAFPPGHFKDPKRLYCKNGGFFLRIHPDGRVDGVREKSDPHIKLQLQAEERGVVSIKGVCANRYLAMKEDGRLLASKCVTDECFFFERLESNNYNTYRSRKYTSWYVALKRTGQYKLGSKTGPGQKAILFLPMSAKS

On to “GlcNS-IdoA2S-GlcNAc-IdoA2S-R [Compound 27]”, for which, on FGF4, the “relative binding of FGF4” value was determined as 35%. For the same substance, the “relative binding of CXCL8” value on CXCL8 (interleukin-8) is recorded as 25%.
On to GlcNS-IdoA-GlcNAc-IdoA2S-R [Compound 7], for which the “FGF2 binding (in words)” value at FGF2 is “abolished FGF2 binding”.
Take “GlcNS6S-IdoA-GlcNAc6S-IdoA-R [Compound 39]”: the “relative binding of FGF4” value at FGF4 is on record as 43%. The “relative binding of FGF2” value on FGF2 came out at 2%. The “relative binding of CXCL8” value at CXCL8 (interleukin-8) is on record as 17%.
Regarding “GlcNS6S-IdoA-GlcNS6S-IdoA2S-R [Compound 52]”, the “relative binding of FGF2” value at FGF2 was found to be 45%. The “relative binding of CXCL8” value on CXCL8 (interleukin-8) came out at 43%.
Turning to “GlcNAc6S-IdoA2S-GlcNS-IdoA-R [Compound 42]”, the “FGF2 binding (in words)” value on FGF2 is on record as “abolished FGF2 binding”.
Consider “GlcNS-IdoA2S-GlcNAc6S-IdoA2S-R [Compound 47]”, for which the “relative binding of FGF4” value on FGF4 stood at 95%. Moreover, the “relative binding of CXCL8” value on CXCL8 (interleukin-8) was determined as 100%.
Regarding “GlcNS6S-IdoA2S-GlcNS6S-IdoA-R [Compound 60]”, the “relative binding of FGF4” value on FGF4 came out at 38%. Further, the “relative binding of FGF2” value at FGF2 stood at 39%. Moreover, the “relative binding of CXCL8” value on CXCL8 (interleukin-8) worked out at 43%.
Consider “GlcNAc6S-IdoA2S-GlcNS6S-IdoA2S-R [Compound 62]”, for which, on FGF4, the “relative binding of FGF4” value was found to be 27%. Moreover, the “relative binding of FGF2” value at FGF2 amounted to 28%.
Take “GlcNAc-IdoA2S-GlcNS-IdoA-R [Compound 14]”: the “FGF2 binding (in words)” value on FGF2 is listed as “abolished FGF2 binding”.
With “GlcNS-IdoA-GlcNAc6S-IdoA-R [Compound 11]”, the “relative binding of FGF2” value at FGF2 is given as 0.7%. On CXCL8 (interleukin-8), the “relative binding of CXCL8” value was 3.3%.
Take “GlcNAc-IdoA2S-GlcNS-IdoA2S-R [Compound 26]”: at CXCL8 (interleukin-8), the “relative binding of CXCL8” value is given as 43%.
With “GlcNS6S-IdoA2S-GlcNS6S-IdoA2S-R [Compound 64]”, the “relative binding of FGF4” value on FGF4 is 81%. Moreover, the “relative binding of FGF2” value on FGF2 was 100%.
Consider “GlcNAc-IdoA2S-GlcNS6S-IdoA2S-R [Compound 46]”, for which the “relative binding of FGF4” value at FGF4 is reported as 32%. Further, at CXCL8 (interleukin-8), the “relative binding of CXCL8” value is recorded as 47%.
Take “GlcNAc-IdoA2S-GlcNS6S-IdoA-R [Compound 34]”: the “FGF2 binding (in words)” value on FGF2 was “abolished FGF2 binding”.
As for “GlcNS6S-IdoA-GlcNS6S-IdoA-R [Compound 40]”, the “relative binding of FGF4” value on FGF4 turned out to be 52%. In addition, on FGF2, the “relative binding of FGF2” value is 3%.
For “GlcNS6S-IdoA2S-GlcNAc6S-IdoA-R [Compound 59]”, the “relative binding of FGF4” value at FGF4 is listed as 83%. Moreover, the “relative binding of CXCL8” value at CXCL8 (interleukin-8) amounted to 53%.
Regarding “GlcNS6S-IdoA2S-GlcNAc-IdoA2S-R [Compound 55]”, the “relative binding of FGF4” value on FGF4 was 43%.
“GlcNS6S-IdoA2S-GlcNAc6S-IdoA2S-R [Compound 63]”: on FGF4, the “relative binding of FGF4” value came out at 100%. Also, the “relative binding of FGF2” value at FGF2 worked out at 70%. For the same substance, at CXCL8 (interleukin-8), the “relative binding of CXCL8” value came to 75%.
Turning to “GlcNAc6S-IdoA2S-GlcNAc6S-IdoA2S-R [Compound 61]”, the “relative binding of FGF2” value at FGF2 amounted to 2%.
Consider “GlcNS6S-IdoA2S-GlcNS-IdoA2S-R [Compound 56]”, for which the “relative binding of FGF4” value on FGF4 is 56%. Besides, the “relative binding of FGF2” value at FGF2 is on record as 63%.
For “GlcNS-IdoA-GlcNS6S-IdoA2S-R [Compound 24]”, the “relative binding of CXCL8” value at CXCL8 (interleukin-8) stood at 63%.
The same measure, in the same setting: next, “GlcNS-IdoA2S-GlcNS6S-IdoA-R [Compound 36]”: 49%.
“GlcNS-IdoA2S-GlcNS6S-IdoA2S-R [Compound 48]”: the “relative binding of FGF4” value on FGF4 was determined as 49%. Besides, the “relative binding of FGF2” value at FGF2 is recorded as 77%. On CXCL8 (interleukin-8), the “relative binding of CXCL8” value worked out at 61%.
Take “GlcNS-IdoA2S-GlcNS-IdoA2S-R [Compound 28]”: the “relative binding of FGF4” value at FGF4 turned out to be 42%. Further, on CXCL8 (interleukin-8), the “relative binding of CXCL8” value worked out at 63%.
With “GlcNAc6S-IdoA2S-GlcNS6S-IdoA-R [Compound 58]”, the “relative binding of FGF4” value on FGF4 was found to be 10%. Moreover, the “FGF2 binding (in words)” value at FGF2 was “abolished FGF2 binding”.
Consider “GlcNS6S-IdoA-GlcNAc-IdoA2S-R [Compound 31]”, for which the “FGF2 binding (in words)” value at FGF2 is “abolished FGF2 binding”.
“GlcNS-IdoA-GlcNAc6S-IdoA2S-R [Compound 23]”: at FGF2, the “FGF2 binding (in words)” value is on record as “abolished FGF2 binding” and the “relative binding of FGF2” value is 2%. In addition, at CXCL8 (interleukin-8), the “relative binding of CXCL8” value is recorded as 29%.
As for “GlcNS6S-IdoA-GlcNAc6S-IdoA2S-R [Compound 51]”, the “relative binding of FGF4” value at FGF4 was found to be 67%. Besides, on FGF2, the “FGF2 binding (in words)” value was “abolished FGF2 binding” and the “relative binding of FGF2” value was 3%. The “relative binding of CXCL8” value on CXCL8 (interleukin-8) amounted to 47%.
As for “GlcNS6S-IdoA2S-GlcNAc-IdoA-R [Compound 43]”, the “relative binding of FGF4” value on FGF4 came out at 16%.
Consider “GlcNS-IdoA2S-GlcNAc6S-IdoA-R [Compound 35]”, for which, at FGF4, the “relative binding of FGF4” value stood at 44%. Also, the “relative binding of FGF2” value at FGF2 was determined as 38%. In addition, on CXCL8 (interleukin-8), the “relative binding of CXCL8” value was 33%.
Take “GlcNS-IdoA2S-GlcNAc-IdoA-R [Compound 15]”: the “relative binding of FGF4” value on FGF4 stood at 16%.
